Read-outs that look alike come from different tables or passages of the source.
Key:
CaMK4 = target: T1, CaMK4 (Homo sapiens, UniProt Q16566); assay: CEREP HTRF kinase selectivity assay; assay type: biochemical; conditions: CaMK4, 10 uM
T1 construct: CEREP
Description: (§1) The inhibitory activity of selected compounds of the invention was evaluated against a panel of 45 different kinase enzymes by CEREP, France. The assays were performed using standard HTRF assay methods as documented by CEREP against the human orthologues of Ab1 kinase, Akt1/PKBa, AMPKa, BMX kinase (Etk), Brk, CaMK2a, CaMK4, CDC2/CDK1 (cycB), CHK1, CHK2, c-Met kinase, CSK, EphB4 kinase, ERKI, ERK2 (P42mapk), FGFR2 kinase, FGFR4 kinase, FLT-1 kinase (VEGFR1), FLT-3 kinase, Fyn kinase, 1GF1R kinase, IRK (InsR), JNK 2, KDR kinase (VEGFR2), Lck kinase, Lyn kinase, MAPKAPK2, MEK1/MAP2K1, p38a kinase, p38d kinase, p38 g kinase, PDGFRb kinase, PDKI, PKA, PKCa, PKCb1, PKCb2, PKCg, Ret kinase, ROCK2, RSK2, Src kinase, Syk, and TRKA (Table 3). The % Inhibition was determined by the formula; % Inhibition=100×(1−(experimental value−background value)/(high activity control−background value)).

JNK 2 = JNK 2 (Homo sapiens, UniProt P45984); assay: CEREP HTRF kinase selectivity assay; assay type: biochemical; conditions: JNK 2, 10 uM
Description: as §1

ERK1 = target: T2, ERK1 (Homo sapiens, UniProt P27361); assay: CEREP HTRF kinase selectivity assay; assay type: biochemical; conditions: ERK1, 10 uM
T2 construct: CEREP
Description: as §1

RSK2 = RSK2 (Homo sapiens, UniProt P51812); assay: CEREP HTRF kinase selectivity assay; assay type: biochemical; conditions: RSK2, 10 uM
Description: as §1

PKCbeta 1 = PKCbeta 1 (Homo sapiens, UniProt P05771); assay: CEREP HTRF kinase selectivity assay; assay type: biochemical; conditions: PKCbeta 1, 10 uM
Description: as §1

PKCalpha = PKCalpha (Homo sapiens, UniProt P17252); assay: CEREP HTRF kinase selectivity assay; assay type: biochemical
Description: as §1

Akt1/PKBalpha = target: T3, Akt1/PKBalpha (Homo sapiens, UniProt P31749); assay: CEREP HTRF kinase selectivity assay; assay type: biochemical
T3 construct: CEREP
Description: as §1

p38delta = p38delta (Homo sapiens, UniProt O15264); assay: CEREP HTRF kinase selectivity assay; assay type: biochemical
Description: as §1

MAPKAPK2 = MAPKAPK2 (Homo sapiens, UniProt P49137); assay: CEREP HTRF kinase selectivity assay; assay type: biochemical; conditions: MAPKAPK2, 10 uM
Description: as §1

CSK = target: T4, CSK (Homo sapiens, UniProt P41240); assay: CEREP HTRF kinase selectivity assay; assay type: biochemical
T4 construct: CEREP
Description: as §1

PKCgamma = PKCgamma (Homo sapiens, UniProt P05129); assay: CEREP HTRF kinase selectivity assay; assay type: biochemical
Description: as §1

TRKA = target: T5, TRKA (Homo sapiens, UniProt P04629); assay: CEREP HTRF kinase selectivity assay; assay type: biochemical
T5 construct: CEREP, France (contract panel)
Description: as §1

CDC2/CDK1 (cycB) = target: T6, CDC2/CDK1 (cycB) (Homo sapiens, UniProt P06493); assay: CEREP HTRF kinase selectivity assay; assay type: biochemical; conditions: CDC2/CDK1, 10 uM
T6 construct: CEREP
Description: as §1

p38gamma = p38gamma (Homo sapiens, UniProt P53778); assay: CEREP HTRF kinase selectivity assay; assay type: biochemical
Description: as §1

PDGFRbeta = PDGFRbeta (Homo sapiens, UniProt P09619); assay: CEREP HTRF kinase selectivity assay; assay type: biochemical
Description: as §1

IRK (InsR) = IRK (InsR) (Homo sapiens, UniProt P06213); assay: CEREP HTRF kinase selectivity assay; assay type: biochemical
Description: as §1

BMX (Etk) = target: T7, BMX (Etk) (Homo sapiens, UniProt P51813); assay: CEREP HTRF kinase selectivity assay; assay type: biochemical
T7 construct: CEREP
Description: as §1

MEK1/MAP2K1 = MEK1/MAP2K1 (Homo sapiens, UniProt Q02750); assay: CEREP HTRF kinase selectivity assay; assay type: biochemical; conditions: MEK1/MAP2K1, 10 uM
Description: as §1

p38alpha = p38alpha (Homo sapiens, UniProt Q16539); assay: CEREP HTRF kinase selectivity assay; assay type: biochemical
Description: as §1

CHK1 = target: T8, CHK1 (Homo sapiens, UniProt O14757); assay: CEREP HTRF kinase selectivity assay; assay type: biochemical; conditions: CHK1, 10 uM
T8 construct: CEREP
Description: as §1

EphB4 = target: T9, EphB4 (Homo sapiens, UniProt P54760); assay: CEREP HTRF kinase selectivity assay; assay type: biochemical; conditions: EphB4, 10 uM
T9 construct: CEREP
Description: as §1

Src = Src (Homo sapiens, UniProt P12931); assay: CEREP HTRF kinase selectivity assay; assay type: biochemical
Description: as §1

ERK (P42mapk) = target: T10, ERK (P42mapk) (Homo sapiens, UniProt P28482); assay: CEREP HTRF kinase selectivity assay; assay type: biochemical
T10 construct: CEREP
Description: as §1

Ret = Ret (Homo sapiens, UniProt P07949); assay: CEREP HTRF kinase selectivity assay; assay type: biochemical
Description: as §1

IGF1R = IGF1R (Homo sapiens, UniProt P08069); assay: CEREP HTRF kinase selectivity assay; assay type: biochemical
Description: as §1

Abl = target: T11, Abl (Homo sapiens, UniProt P00519); assay: CEREP HTRF kinase selectivity assay; assay type: biochemical
T11 construct: CEREP
Description: as §1

Brk = target: T12, Brk (Homo sapiens, UniProt Q13882); assay: CEREP HTRF kinase selectivity assay; assay type: biochemical
T12 construct: CEREP
Description: as §1

ROCK2 = ROCK2 (Homo sapiens, UniProt O75116); assay: CEREP HTRF kinase selectivity assay; assay type: biochemical; conditions: ROCK2, 10 uM
Description: as §1

CHK2 = target: T13, CHK2 (Homo sapiens, UniProt O96017); assay: CEREP HTRF kinase selectivity assay; assay type: biochemical; conditions: CHK2, 10 uM
T13 construct: CEREP
Description: as §1

FGFR4 = target: T14, FGFR4 (Homo sapiens, UniProt P22455); assay: CEREP HTRF kinase selectivity assay; assay type: biochemical; conditions: FGFR4, 10 uM
T14 construct: CEREP
Description: as §1

Lck = Lck (Homo sapiens, UniProt P06239); assay: CEREP HTRF kinase selectivity assay; assay type: biochemical
Description: as §1

Lyn = Lyn (Homo sapiens, UniProt P07948); assay: CEREP HTRF kinase selectivity assay; assay type: biochemical
Description: as §1

Fyn = Fyn (Homo sapiens, UniProt P06241); assay: CEREP HTRF kinase selectivity assay; assay type: biochemical
Description: as §1

PKA = PKA (Homo sapiens, UniProt P17612); assay: CEREP HTRF kinase selectivity assay; assay type: biochemical
Description: as §1

c-Met = target: T15, c-Met (Homo sapiens, UniProt P08581); assay: CEREP HTRF kinase selectivity assay; assay type: biochemical
T15 construct: CEREP
Description: as §1

PDK1 = PDK1 (Homo sapiens, UniProt O15530); assay: CEREP HTRF kinase selectivity assay; assay type: biochemical; conditions: PDK1, 10 uM
Description: as §1

PKCbeta 2 = PKCbeta 2 (Homo sapiens, UniProt P05771); assay: CEREP HTRF kinase selectivity assay; assay type: biochemical; conditions: PKCbeta 2, 10 uM
Description: as §1

FLT-3 = FLT-3 (Homo sapiens, UniProt P36888); assay: CEREP HTRF kinase selectivity assay; assay type: biochemical; conditions: FLT-3, 10 uM
Description: (§3) The inhibitory activity of selected compounds of the invention was evaluated against a panel of 45 different kinase enzymes by CEREP, France. […] The % Inhibition was determined by the formula; % Inhibition=100×(1−(experimental value−background value)/(high activity control−background value)).

HUV-EC-C cells = assay: In Vitro Angiogenesis Assay (tube formation); conditions: HUV-EC-C cells on ECMatrix, 4 hr; FIGS. 1 and 2
KDR (VEGFR2) = KDR (VEGFR2) (Homo sapiens, UniProt P35968); assay: CEREP HTRF kinase selectivity assay; assay type: biochemical
Description: as §3

AMPKalpha = assay: CEREP HTRF kinase selectivity assay; assay type: biochemical, human
Description: as §1

[1] = tested on: SW620 colon cancer cell line; assay: Cell growth inhibition, Sulforhodamine B assay (SRB); assay type: cell-based; conditions: Homo sapiens, SW-620, 120 h, 5 days culture, SRB
Method in brief: (§2)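 Growth inhibition is measured by SRB staining after 5 days of culture. Cells are fixed with cold 10% TCA, stained, washed with 1% acetic acid and read at 570 nm. Values are relative to DMSO-treated cells, with GI50 calculated for cytotoxic compounds.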

[2] = tested on: HCC1954 basal breast cancer cell line; assay: as above; assay type: cell-based; conditions: Homo sapiens, HCC1954, 120 h, read-out: Cell Line GI50 Range HCC-1954
Method in brief: as §2

[3] = tested on: human mammary epithelial primary cells (HMEC); assay: as above; conditions: 120 h, read-out: Cell Line GI50 Range HMEC
[4] = tested on: MDA-MB-468 basal breast cancer cell line; assay: as above; assay type: cell-based; conditions: Homo sapiens, 120 h; MDA-MB-468 basal breast cancer cell line; 5 days culture; SRB; read-out: Cell Line GI50 Range MDA-MB-468
Method in brief: as §2

[5] = tested on: MCF-7 luminal breast cancer cell line; assay: as above; assay type: cell-based; conditions: Homo sapiens, MCF7, 120 h; MCF-7 luminal breast cancer cell line; 5 days culture; SRB; read-out: Cell Line GI50 Range MCF-7
Method in brief: as §2

[6] = tested on: A549 lung cancer cell line; assay: as above; assay type: cell-based; conditions: Homo sapiens, 120 h; A549 lung cancer cell line; 5 days culture; SRB; read-out: Cell Line GI50 Range A-549
Method in brief: as §2

FLT-3, sequence (P36888 27-993): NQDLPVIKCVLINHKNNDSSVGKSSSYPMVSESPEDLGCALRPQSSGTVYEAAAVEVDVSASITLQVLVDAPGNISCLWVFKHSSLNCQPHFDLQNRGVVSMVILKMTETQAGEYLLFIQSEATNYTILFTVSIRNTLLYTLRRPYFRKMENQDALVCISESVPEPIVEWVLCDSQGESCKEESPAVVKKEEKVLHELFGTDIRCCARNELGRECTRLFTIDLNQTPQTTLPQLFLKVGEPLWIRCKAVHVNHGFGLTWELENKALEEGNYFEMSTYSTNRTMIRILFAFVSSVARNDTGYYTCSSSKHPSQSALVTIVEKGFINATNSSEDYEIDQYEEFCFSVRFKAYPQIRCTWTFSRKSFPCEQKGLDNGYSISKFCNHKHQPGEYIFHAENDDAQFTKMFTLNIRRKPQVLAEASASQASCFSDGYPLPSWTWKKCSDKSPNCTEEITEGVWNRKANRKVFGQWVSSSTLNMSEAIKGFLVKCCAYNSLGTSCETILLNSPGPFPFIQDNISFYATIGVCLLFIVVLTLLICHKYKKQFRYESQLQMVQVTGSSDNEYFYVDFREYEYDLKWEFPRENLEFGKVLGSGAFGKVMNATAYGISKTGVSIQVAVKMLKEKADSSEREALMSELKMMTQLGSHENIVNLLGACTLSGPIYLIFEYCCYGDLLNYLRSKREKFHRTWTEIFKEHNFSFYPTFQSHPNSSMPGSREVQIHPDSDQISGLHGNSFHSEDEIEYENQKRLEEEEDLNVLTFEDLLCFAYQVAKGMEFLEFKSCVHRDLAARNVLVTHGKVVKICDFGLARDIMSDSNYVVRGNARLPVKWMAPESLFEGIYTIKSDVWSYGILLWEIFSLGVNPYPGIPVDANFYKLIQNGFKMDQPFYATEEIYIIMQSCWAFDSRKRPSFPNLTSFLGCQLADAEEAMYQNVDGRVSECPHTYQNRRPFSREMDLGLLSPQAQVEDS
KDR (VEGFR2), sequence (P35968 20-1356): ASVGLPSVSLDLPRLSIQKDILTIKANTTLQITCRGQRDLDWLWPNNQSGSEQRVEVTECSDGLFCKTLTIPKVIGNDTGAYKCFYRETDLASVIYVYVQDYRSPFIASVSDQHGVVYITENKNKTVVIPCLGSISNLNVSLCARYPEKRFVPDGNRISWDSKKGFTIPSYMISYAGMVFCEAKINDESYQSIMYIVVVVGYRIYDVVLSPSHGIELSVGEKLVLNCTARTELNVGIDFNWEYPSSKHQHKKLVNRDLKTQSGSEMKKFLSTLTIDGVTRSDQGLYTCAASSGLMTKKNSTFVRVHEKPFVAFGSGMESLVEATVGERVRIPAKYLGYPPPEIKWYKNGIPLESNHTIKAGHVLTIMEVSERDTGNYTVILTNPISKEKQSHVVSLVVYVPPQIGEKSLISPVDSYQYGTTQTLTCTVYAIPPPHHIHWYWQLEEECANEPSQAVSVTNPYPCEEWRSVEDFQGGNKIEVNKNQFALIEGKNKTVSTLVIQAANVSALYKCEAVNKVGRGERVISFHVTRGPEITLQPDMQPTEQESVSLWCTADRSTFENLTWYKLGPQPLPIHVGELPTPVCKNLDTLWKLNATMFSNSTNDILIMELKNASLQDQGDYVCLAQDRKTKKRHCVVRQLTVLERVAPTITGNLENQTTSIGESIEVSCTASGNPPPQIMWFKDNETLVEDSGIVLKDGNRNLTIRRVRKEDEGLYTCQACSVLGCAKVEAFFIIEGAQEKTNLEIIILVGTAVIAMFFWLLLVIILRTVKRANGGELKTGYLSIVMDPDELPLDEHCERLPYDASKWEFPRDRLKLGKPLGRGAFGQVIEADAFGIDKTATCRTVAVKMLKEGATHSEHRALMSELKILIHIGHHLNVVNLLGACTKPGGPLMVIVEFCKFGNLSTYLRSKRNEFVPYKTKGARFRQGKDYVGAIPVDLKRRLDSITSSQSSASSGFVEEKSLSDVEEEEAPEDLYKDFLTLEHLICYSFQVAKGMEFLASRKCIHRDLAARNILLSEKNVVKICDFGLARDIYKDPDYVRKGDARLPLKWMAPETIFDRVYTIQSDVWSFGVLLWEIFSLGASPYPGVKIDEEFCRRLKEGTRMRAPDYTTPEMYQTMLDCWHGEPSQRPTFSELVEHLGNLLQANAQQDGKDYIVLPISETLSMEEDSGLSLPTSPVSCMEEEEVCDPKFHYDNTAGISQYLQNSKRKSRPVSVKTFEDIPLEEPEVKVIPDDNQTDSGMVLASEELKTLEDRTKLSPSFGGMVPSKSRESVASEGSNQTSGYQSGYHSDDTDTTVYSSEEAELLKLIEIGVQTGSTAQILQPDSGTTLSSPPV
T3 sequence (P31749 whole entry): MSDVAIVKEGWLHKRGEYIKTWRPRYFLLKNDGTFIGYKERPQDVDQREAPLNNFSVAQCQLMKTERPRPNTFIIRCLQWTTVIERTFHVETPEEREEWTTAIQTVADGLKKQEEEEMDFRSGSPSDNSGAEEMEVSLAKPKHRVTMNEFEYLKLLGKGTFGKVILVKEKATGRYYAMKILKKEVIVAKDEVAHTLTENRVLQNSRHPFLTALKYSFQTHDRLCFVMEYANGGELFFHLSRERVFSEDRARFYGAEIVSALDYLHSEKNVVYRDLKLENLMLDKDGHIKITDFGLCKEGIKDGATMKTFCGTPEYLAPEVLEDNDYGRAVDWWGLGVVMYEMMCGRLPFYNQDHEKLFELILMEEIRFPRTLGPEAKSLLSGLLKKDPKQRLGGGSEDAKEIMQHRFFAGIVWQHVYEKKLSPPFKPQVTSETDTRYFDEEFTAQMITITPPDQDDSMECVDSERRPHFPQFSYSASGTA
RSK2, sequence (P51812 whole entry): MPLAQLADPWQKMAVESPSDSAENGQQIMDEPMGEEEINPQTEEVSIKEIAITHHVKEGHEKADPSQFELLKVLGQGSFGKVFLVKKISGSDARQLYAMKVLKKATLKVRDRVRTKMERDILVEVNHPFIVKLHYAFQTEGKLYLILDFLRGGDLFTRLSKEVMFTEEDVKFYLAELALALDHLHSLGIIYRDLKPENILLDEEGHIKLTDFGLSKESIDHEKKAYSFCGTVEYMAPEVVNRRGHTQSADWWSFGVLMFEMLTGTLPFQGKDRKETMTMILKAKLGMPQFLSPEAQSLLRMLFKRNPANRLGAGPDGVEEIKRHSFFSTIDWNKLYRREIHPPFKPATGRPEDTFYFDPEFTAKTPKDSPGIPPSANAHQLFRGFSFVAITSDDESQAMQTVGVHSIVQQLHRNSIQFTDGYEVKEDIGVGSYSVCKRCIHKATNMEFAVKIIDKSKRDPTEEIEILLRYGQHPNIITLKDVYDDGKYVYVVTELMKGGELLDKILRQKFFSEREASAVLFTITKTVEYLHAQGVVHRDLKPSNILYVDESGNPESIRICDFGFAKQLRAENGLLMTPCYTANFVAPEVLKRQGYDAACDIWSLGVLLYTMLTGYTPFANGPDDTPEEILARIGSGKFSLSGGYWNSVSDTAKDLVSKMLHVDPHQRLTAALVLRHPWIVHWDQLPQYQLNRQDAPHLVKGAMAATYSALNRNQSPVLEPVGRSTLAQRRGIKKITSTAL
ROCK2, sequence (O75116 whole entry): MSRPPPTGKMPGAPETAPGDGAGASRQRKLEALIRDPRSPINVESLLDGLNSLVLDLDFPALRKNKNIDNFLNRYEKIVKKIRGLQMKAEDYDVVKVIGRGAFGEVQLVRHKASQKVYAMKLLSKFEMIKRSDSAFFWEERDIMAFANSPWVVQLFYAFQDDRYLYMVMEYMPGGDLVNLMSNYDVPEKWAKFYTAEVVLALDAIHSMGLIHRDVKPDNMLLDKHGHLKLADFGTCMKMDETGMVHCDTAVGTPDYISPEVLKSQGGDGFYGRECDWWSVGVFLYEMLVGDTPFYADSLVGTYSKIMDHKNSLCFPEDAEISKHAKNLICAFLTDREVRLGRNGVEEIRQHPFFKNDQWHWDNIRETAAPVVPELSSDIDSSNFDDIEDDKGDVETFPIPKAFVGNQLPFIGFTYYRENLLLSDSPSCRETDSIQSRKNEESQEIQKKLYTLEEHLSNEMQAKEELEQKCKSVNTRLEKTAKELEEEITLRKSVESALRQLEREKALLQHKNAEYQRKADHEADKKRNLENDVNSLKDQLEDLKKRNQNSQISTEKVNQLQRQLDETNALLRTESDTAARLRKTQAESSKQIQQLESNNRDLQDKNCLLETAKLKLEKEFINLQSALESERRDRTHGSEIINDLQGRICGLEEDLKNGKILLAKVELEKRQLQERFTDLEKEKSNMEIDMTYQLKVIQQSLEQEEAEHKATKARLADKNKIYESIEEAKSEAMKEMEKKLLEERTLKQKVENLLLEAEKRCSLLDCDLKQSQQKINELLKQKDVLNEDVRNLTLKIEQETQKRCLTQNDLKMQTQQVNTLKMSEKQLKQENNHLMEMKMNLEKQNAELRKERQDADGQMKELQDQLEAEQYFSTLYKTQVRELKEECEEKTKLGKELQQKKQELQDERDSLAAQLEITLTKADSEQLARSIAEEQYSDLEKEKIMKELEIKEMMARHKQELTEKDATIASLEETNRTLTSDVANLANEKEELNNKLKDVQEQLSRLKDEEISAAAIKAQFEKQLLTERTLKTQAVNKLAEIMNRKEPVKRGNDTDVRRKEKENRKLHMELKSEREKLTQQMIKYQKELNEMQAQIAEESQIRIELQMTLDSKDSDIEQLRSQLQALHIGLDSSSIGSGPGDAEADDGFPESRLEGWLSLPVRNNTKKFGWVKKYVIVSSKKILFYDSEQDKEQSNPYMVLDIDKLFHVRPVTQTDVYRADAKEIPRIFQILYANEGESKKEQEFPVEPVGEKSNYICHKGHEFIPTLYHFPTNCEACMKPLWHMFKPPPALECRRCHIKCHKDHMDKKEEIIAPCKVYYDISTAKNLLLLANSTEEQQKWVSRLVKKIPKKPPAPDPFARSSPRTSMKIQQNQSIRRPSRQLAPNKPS

O=C1Nc2ccccc2[C@@]12C[C@@H]2c1ccc2c(/C=C/c3ccncc3)n[nH]c2c1 (racemic) [Example A22, (1R*,2S*)-(E)-2-(3-(2-(pyridin-4-yl)vinyl)-1H-indazol-6-yl)spiro-[cyclo-propane-1,3′-indolin]-2′-one]
inhibition at 10 µM (CaMK4): -8%
inhibition at 10 µM (JNK 2): 32%
inhibition at 10 µM (ERK1): 8%
inhibition at 10 µM (RSK2): 48%
inhibition at 10 µM (PKCbeta 1): 0%
inhibition at 10 µM (PKCalpha): 7%
inhibition at 10 µM (Akt1/PKBalpha): -1%
inhibition at 10 µM (p38delta): -22%
inhibition at 10 µM (MAPKAPK2): 4%
inhibition at 10 µM (CSK): 99%
inhibition at 10 µM (PKCgamma): 8%
inhibition at 10 µM (TRKA): 100%
inhibition at 10 µM (CDC2/CDK1 (cycB)): 93%
inhibition at 10 µM (p38gamma): -15%
inhibition at 10 µM (PDGFRbeta): 88%
inhibition at 10 µM (IRK (InsR)): 21%
inhibition at 10 µM (BMX (Etk)): 71%
inhibition at 10 µM (MEK1/MAP2K1): 12%
inhibition at 10 µM (p38alpha): 32%
inhibition at 10 µM (CHK1): 37%
inhibition at 10 µM (EphB4): 99%
inhibition at 10 µM (Src): 26%
inhibition at 10 µM (ERK (P42mapk)): 11%
inhibition at 10 µM (Ret): 99%
inhibition at 10 µM (IGF1R): 22%
inhibition at 10 µM (Abl): 97%
inhibition at 10 µM (Brk): 41%
inhibition at 10 µM (ROCK2): 88%
inhibition at 10 µM (CHK2): 4%
inhibition at 10 µM (FGFR4): 56%
inhibition at 10 µM (Lck): 97%
inhibition at 10 µM (Lyn): 99%
inhibition at 10 µM (Fyn): 87%
inhibition at 10 µM (PKA): -6%
inhibition at 10 µM (c-Met): 97%
inhibition at 10 µM (PDK1): 69%
inhibition at 10 µM (PKCbeta 2): 11%
inhibition at 10 µM (FLT-3): 100%
anti-angiogenic effect (tube formation, % of control tube count) (HUV-EC-C cells): anti-agiogenic effects at submicromolar concentrations
inhibition at 10 µM (KDR (VEGFR2)): 98%

CN(C)Cc1ccc(/C=C/c2n[nH]c3cc([C@@H]4C[C@]45C(=O)Nc4ccccc45)ccc23)cc1 (racemic) [Example A26, (1R*,2R*)-(E)-2-(3-(4-((dimethylamino)methyl)styryl)-1H-indazol-6-yl)spiro[cyclopropane-1,3′-indolin]-2′-one 2,2,2-trifluoroacetate]
% Inhibition @ 10 uM (AMPKalpha): 69%
inhibition at 10 µM (FLT-3): 102%
inhibition at 10 µM (KDR (VEGFR2)): 58%
GI50 ([1]; read-out: Cell Line GI50 Range SW-620, SW620 colon cancer cell line): 100 to 1000 nM
GI50 [2]: 1000 to 10000 nM

COc1ccc2c(c1)[C@@]1(C[C@@H]1c1ccc3c(/C=C/c4ccc(N5CCN(C(C)C)CC5)cc4)n[nH]c3c1)C(=O)N2 (racemic) [Example A189, (1R*,2S*)-(E)-2-(3-(4-(4-isopropylpiperazin-1-yl)styryl)-1H-indazol-6-yl)-5′-methoxyspiro[cyclopropane-1,3′-indolin]-2′-one 2,2,2-trifluoroacetate]
GI50 [3]: 1000 to 10000 nM
GI50 [4]: < 100 nM
GI50 [5]: < 100 nM
GI50 ([1]; SW620 colon cancer cell line, read-out: Cell Line GI50 Range SW-620): < 100 nM
GI50 [6]: < 100 nM
GI50 ([2]; HCC1954 basal breast cancer cell line, 5 days culture, SRB): < 100 nM
